The values that follow come from ChEMBL document CHEMBL1201862, “PubChem BioAssay data set” (2004).

Several values for one entry are separate records, joined by “and”; a condition that tells them apart may be missing. Equal entries are not always repeated.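 Values below derive from 48-hour exposures of cells grown in 96-well plates, with endpoints linearly interpolated between the two concentrations bracketing the appropriate inhibition level. The concentration for 50% growth inhibition is given as GI50.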 Activity calls are given as the source filed them. Rule as the data show it: active = GI50 up to about 1.1 µM and inactive = higher.

Among the test systems are ACHN; EKVX; HCT-15; HOP-62; HOP-92; HT-29; KM12; LOX IMVI; MCF7; MDA-MB-435; Malme-3M; NCI-H23; NCI-H460; NCI/ADR-RES; OVCAR-5; OVCAR-8; SK-MEL-28; SK-MEL-5; SN12C; CAKI-1.
Common to all, as to experiment: growth of human tumour cells (NCI), 48 h

On to `O=C(CC(C(=O)c1cccs1)c1ccsc1)c1ccsc1` (stereo not given), for which the GI50 with ACHN was 58.2 µM (inactive); in the experiment with EKVX, 38 µM (inactive); with HCT-15 it was 42.1 µM; in the experiment on HOP-62, 56.9 µM (inactive); in the experiment on HOP-92, 29.2 µM (inactive); in the experiment with HT-29 it was 36.6 µM (inactive). Besides, the GI50 was 42.9 µM (inactive) with KM12; 22.8 µM (inactive) with LOX IMVI; 32.5 µM (inactive) in the experiment with MCF7; 20.3 µM (inactive) with MDA-MB-435; 78.5 µM (inactive) in the experiment with Malme-3M; 53 µM (inactive) in the experiment on NCI-H23. Also, the GI50 in the experiment with NCI-H460 is 23 µM (inactive); in the experiment on NCI/ADR-RES it was 24.8 µM (inactive); with OVCAR-5, > 100 µM (inactive); with OVCAR-8, 39.4 µM (inactive); with SK-MEL-28, 50.5 µM (inactive); in the experiment on SK-MEL-5, 16.1 µM (inactive). Besides, the GI50 in the experiment on SN12C is 52 µM (inactive).

With `COC(=O)CCCC(=O)NC1=C(Nc2ccc(OC)cc2)C(=O)c2ccccc2C1=O`, the GI50 is 28 µM (inactive) with ACHN; 43.2 µM (inactive) with CAKI-1; 21.9 µM (inactive) in the experiment on EKVX; 23.8 µM with HCT-15; 71 µM (inactive) in the experiment with HOP-92; 28.8 µM (inactive) in the experiment with KM12. In addition, the GI50 with LOX IMVI was 25.9 µM (inactive); with MCF7, 17.1 µM (inactive); with MDA-MB-435 it was 18.2 µM (inactive); in the experiment on Malme-3M, 3.4 µM (inactive); with NCI-H23, 20.4 µM (inactive); in the experiment with NCI-H460, 15.9 µM (inactive). The GI50 was 21.9 µM (inactive) with NCI/ADR-RES; 18.8 µM (inactive) with OVCAR-5; 31 µM (inactive) in the experiment with OVCAR-8; 20.9 µM (inactive) in the experiment on SK-MEL-28; 27.7 µM (inactive) with SN12C.

Turning to `C=C(C(=O)O)[C@@H]1C[C@@H]2O[C@H]1[C@@H](O)[C@@H](C)CCCC(C)=CCC[C@@]2(C)O`, the GI50 in the experiment on ACHN was 90.6 µM (inactive); in the experiment with EKVX, > 100 µM (inactive) and > 94.4 µM (inactive); in the experiment on HCT-15, > 100 µM and 78.3 µM; in the experiment with HOP-62, > 100 µM (inactive); in the experiment with HOP-92 it was > 100 µM (inactive) and 99.8 µM (inactive); in the experiment with KM12 it was > 100 µM (inactive). Also, the GI50 in the experiment with LOX IMVI is 41.3 µM (inactive) and > 47.2 µM (inactive); in the experiment with MCF7 it was 46 µM (inactive) and > 91.6 µM (inactive); in the experiment on MDA-MB-435 it was 71.8 µM (inactive) and > 81.3 µM (inactive); with Malme-3M it was > 100 µM (inactive) and > 72.9 µM (inactive); in the experiment with NCI-H23 it was > 100 µM (inactive); in the experiment on NCI-H460 it was > 100 µM (inactive). The GI50 is > 100 µM (inactive) in the experiment with NCI/ADR-RES; > 100 µM (inactive) in the experiment on OVCAR-5; > 100 µM (inactive) in the experiment with OVCAR-8; > 100 µM (inactive) with SK-MEL-28; > 100 µM (inactive) and > 91.6 µM (inactive) with SK-MEL-5; > 100 µM (inactive) with SN12C.

As for `CN(C)c1ccc(C2CC(c3ccc4ccccc4c3O)=NN2c2ccc([N+](=O)[O-])cc2[N+](=O)[O-])cc1` (stereo not given), the GI50 in the experiment on ACHN was > 100 µM (inactive); in the experiment on CAKI-1 it was > 100 µM (inactive); in the experiment with HCT-15, 61.5 µM; in the experiment on HOP-62, 75.5 µM (inactive); in the experiment with HOP-92 it was > 100 µM (inactive); with HT-29, 39.4 µM (inactive). Besides, the GI50 in the experiment with KM12 was 24.4 µM (inactive); in the experiment on MCF7 it was 23.8 µM (inactive); in the experiment with MDA-MB-435, 17.5 µM (inactive); in the experiment on Malme-3M, 19.2 µM (inactive); in the experiment with NCI-H23, 17 µM (inactive); in the experiment with NCI-H460, 32.3 µM (inactive). The GI50 with NCI/ADR-RES is 43.5 µM (inactive); in the experiment on OVCAR-5, > 100 µM (inactive); in the experiment with OVCAR-8, 56 µM (inactive); in the experiment on SK-MEL-28 it was 56 µM (inactive); with SN12C, 50.7 µM (inactive).

For the compound `Cc1cn(C2CC(ON3C(=O)c4ccccc4C3=O)C(CO)O2)c(=O)[nH]c1=O` (stereo not given), the GI50 is > 10 µM (inactive) with ACHN; > 10 µM (inactive) in the experiment on EKVX; more than 10 µM in the experiment with HCT-15; 0.855 µM (active) in the experiment with HOP-92; > 10 µM (inactive) with HT-29; > 10 µM (inactive) with KM12. The GI50 in the experiment on LOX IMVI, in the experiment on MCF7, in the experiment on MDA-MB-435, in the experiment on Malme-3M, with NCI-H23 and in the experiment with NCI-H460 was > 10 µM (inactive) each time. Moreover, the GI50 in the experiment with NCI/ADR-RES, in the experiment on OVCAR-5, in the experiment with OVCAR-8 and in the experiment on SN12C was > 10 µM (inactive) each time.

As for `CC1(C)C2CCC1(C)C(N/C(=C(/C(Cl)=C(Cl)Cl)[N+](=O)[O-])n1nnc3ccccc31)C2` (stereo not given), the GI50 was 20.9 µM (inactive) with ACHN; 18.6 µM (inactive) in the experiment with CAKI-1; 32.4 µM (inactive) with EKVX; 27.7 µM with HCT-15; 24.9 µM (inactive) in the experiment with HOP-62; 39 µM (inactive) in the experiment on HT-29. The GI50 with KM12 was 21.8 µM (inactive); in the experiment with LOX IMVI, 33.2 µM (inactive); in the experiment with MCF7 it was 32.4 µM (inactive); in the experiment with MDA-MB-435, 21.4 µM (inactive); in the experiment with Malme-3M it was 19.3 µM (inactive); in the experiment with NCI-H23, 22.4 µM (inactive). The GI50 with NCI-H460 is 37.2 µM (inactive); with NCI/ADR-RES, 27.5 µM (inactive); with OVCAR-5 it was 29.2 µM (inactive); in the experiment with OVCAR-8, 29.1 µM (inactive); with SK-MEL-28, 36.7 µM (inactive); in the experiment on SN12C, 41.8 µM (inactive).

Regarding `N=C(N)C1CN(CC=O)C(=O)NC1=O` (stereo not given), the GI50 is > 100 µM (inactive) in the experiment with ACHN; > 100 µM (inactive) with EKVX; more than 100 µM in the experiment on HCT-15; > 100 µM (inactive) with HOP-62; > 100 µM (inactive) in the experiment on HOP-92; > 100 µM (inactive) in the experiment with HT-29. Further, the GI50 in the experiment on LOX IMVI, in the experiment with MCF7, in the experiment on MDA-MB-435, in the experiment on Malme-3M, in the experiment on NCI-H23 and with NCI-H460 was > 100 µM (inactive) in each case. For the same compound, the GI50 with NCI/ADR-RES, with OVCAR-5, in the experiment on OVCAR-8, in the experiment with SK-MEL-28, in the experiment on SK-MEL-5 and with SN12C was > 100 µM (inactive) each time.

Consider `Cc1ccc(C(=O)N/N=C(\N=N\c2ccccc2)c2ccc(N(C)C)cc2)cc1`, for which the GI50 in the experiment with CAKI-1 is 44.5 µM (inactive); with EKVX, > 100 µM (inactive); with HCT-15 it was more than 100 µM; in the experiment with HOP-92 it was > 100 µM (inactive); in the experiment on HT-29, > 100 µM (inactive); in the experiment on KM12 it was 71.1 µM (inactive). The GI50 in the experiment with LOX IMVI was > 100 µM (inactive); in the experiment on MCF7, 48.8 µM (inactive); with MDA-MB-435, 24 µM (inactive); in the experiment on NCI-H23, > 100 µM (inactive); in the experiment on NCI-H460, > 100 µM (inactive); in the experiment with NCI/ADR-RES, > 100 µM (inactive). In addition, the GI50 in the experiment with OVCAR-5 was > 100 µM (inactive); in the experiment on OVCAR-8, > 100 µM (inactive); in the experiment with SK-MEL-28 it was > 100 µM (inactive); in the experiment on SK-MEL-5 it was 92 µM (inactive); with SN12C it was > 100 µM (inactive).
